Several values for one entry are separate records, joined by “and”; a condition that tells them apart may be missing. Equal entries are not always repeated.
What was measured:
[1] = Crystal; for vapor or sublimation pressure: Calculated from knudsen effusion weight loss; for Normal melting temperature: DTA
[2] = Molar enthalpy of transition or fusion; conditions: Crystal; DSC

COC(=O)c1ccc(C(=O)O)cc1 [1,4-benzenedicarboxylic acid, monomethyl ester]
[1]
Conditions	vapor or sublimation pressure
363.16 K	0.000139 kPa and 0.00014 kPa
365.15 K	0.000169 kPa and 0.000171 kPa and 0.000167 kPa
367.19 K	0.000212 kPa and 0.000209 kPa
370.18 K	0.000289 kPa and 0.000294 kPa and 0.000286 kPa
372.17 K	0.000361 kPa and 0.000363 kPa and 0.000354 kPa
374.2 K	0.000452 kPa and 0.000449 kPa and 0.000439 kPa
377.37 K	0.00063 kPa and 0.000621 kPa and 0.00062 kPa
379.26 K	0.000768 kPa and 0.000743 kPa and 0.000739 kPa
381.51 K	0.00094 kPa and 0.000931 kPa and 0.000926 kPa

Conditions	Molar enthalpy of transition or fusion [kcal/mol]	Normal melting temperature [°C]
[1]	–	219.39
[2]	9.01	–

COC(=O)c1cccc(C(=O)O)c1 [1,3-benzenedicarboxylic acid, monomethyl ester]
[1]
Conditions	vapor or sublimation pressure
359.26 K	0.000134 kPa and 0.000136 kPa
361.24 K	0.000172 kPa and 0.000169 kPa
363.28 K	0.000211 kPa and 0.00021 kPa and 0.000202 kPa
365.26 K	0.000256 kPa and 0.000252 kPa and 0.000264 kPa
367.13 K	0.000313 kPa and 0.000311 kPa
369.28 K	0.000397 kPa and 0.000399 kPa and 0.000382 kPa
371.24 K	0.000499 kPa and 0.000487 kPa and 0.000474 kPa
373.12 K	0.000588 kPa and 0.000586 kPa and 0.000569 kPa
375.27 K	0.000773 kPa and 0.000759 kPa and 0.000741 kPa
377.24 K	0.000953 kPa and 0.000928 kPa and 0.000917 kPa
379.12 K	0.001122 kPa and 0.001111 kPa

Conditions	Molar enthalpy of transition or fusion [kcal/mol]	Normal melting temperature [°C]
[1]	–	193.53
[2]	8.72	–

COC(=O)c1ccccc1C(=O)O [phthalic acid, monomethyl ester]
[1]
Conditions	vapor or sublimation pressure
335.28 K	0.000112 kPa and 0.000118 kPa and 0.000115 kPa
337.26 K	0.000154 kPa and 0.000148 kPa and 0.000149 kPa
339.2 K	0.000184 kPa and 0.000187 kPa and 0.00019 kPa
341.24 K	0.000239 kPa and 0.000243 kPa
343.11 K	0.000298 kPa and 0.000306 kPa and 0.000301 kPa
345.27 K	0.000388 kPa and 0.000386 kPa
347.24 K	0.000471 kPa and 0.00048 kPa and 0.000468 kPa
349.12 K	0.000579 kPa and 0.000575 kPa and 0.000593 kPa
351.06 K	0.000743 kPa and 0.000733 kPa and 0.000751 kPa
353.23 K	0.000981 kPa and 0.000964 kPa and 0.000948 kPa
355.28 K	0.001233 kPa and 0.001242 kPa

Conditions	Molar enthalpy of transition or fusion [kcal/mol]	Normal melting temperature [°C]
[1]	–	84.4
[2]	5.17	–

From the NIST ThermoML archive (doi:10.1021/je0503305)
